According to PMC8119466, “A screen of FDA-approved drugs identifies inhibitors of protein tyrosine phosphatase 4A3 (PTP4A3 or PRL-3)” (Scientific Reports, 2021):
Structures can show the parent of a compound that is named as a salt. Where two headings read alike, the source gives them in different places.

Columns and labels:
Assay type in all cases: biochemical
[1] = biological target: T1, recombinant PRL-1 (Homo sapiens, UniProt Q93096); assay: In vitro phosphatase assay (DiFMUP hydrolysis), PRL-1; also: test concentration or dose not given here
T1 construct: 6xHis (N, cleaved yes); made in house; host or cells: E. coli One Shot BL21 Star
T1 sequence (Q93096 1-173): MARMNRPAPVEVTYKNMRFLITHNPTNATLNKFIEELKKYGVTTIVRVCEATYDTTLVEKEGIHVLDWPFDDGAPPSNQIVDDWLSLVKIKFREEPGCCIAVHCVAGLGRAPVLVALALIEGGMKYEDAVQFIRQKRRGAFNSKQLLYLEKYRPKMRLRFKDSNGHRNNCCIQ

[2] = biological target: T2, recombinant PRL-2 (Homo sapiens, UniProt Q12974); assay: In vitro phosphatase assay (DiFMUP hydrolysis), PRL-2;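 also: PRL-2 activity read as DiFMUP hydrolysis after 20 min at room temperature with drug, enzyme first pre-reduced at 4 °C for 20 min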
T2 construct: 6xHis (N, cleaved yes); made in house; host or cells: E. coli One Shot BL21 Star
T2 sequence (Q12974 1-167): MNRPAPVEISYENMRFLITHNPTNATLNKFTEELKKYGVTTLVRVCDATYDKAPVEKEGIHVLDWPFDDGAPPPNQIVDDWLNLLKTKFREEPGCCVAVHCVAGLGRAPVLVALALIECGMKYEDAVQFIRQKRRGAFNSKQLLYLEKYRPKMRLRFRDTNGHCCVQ

[3] = biological target: T3, recombinant PRL-3 (Homo sapiens, UniProt O75365); assay: In vitro phosphatase assay (DiFMUP hydrolysis), PRL-3; also: test concentration or dose not given here
T3 construct: 6xHis (N, cleaved yes); made in house; host or cells: E. coli One Shot BL21 Star

[4] = FDA-approved drug screen, compared to DMSO

T3 sequence (O75365 whole entry): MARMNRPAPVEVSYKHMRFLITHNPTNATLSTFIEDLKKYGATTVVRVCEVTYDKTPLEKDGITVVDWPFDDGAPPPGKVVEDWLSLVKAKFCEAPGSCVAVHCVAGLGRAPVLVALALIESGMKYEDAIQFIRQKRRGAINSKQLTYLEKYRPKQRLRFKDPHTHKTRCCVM

SMILES | % Phosphatase Activity (compared to DMSO) PRL-1 [1, 4] [%] | % Phosphatase Activity (compared to DMSO) PRL-2 [2, 4] [%] | % Phosphatase Activity (compared to DMSO) PRL-3 [3, 4] [%] | % Phosphatase Activity (compared to DMSO) PRL-1 [1] [%] | % Phosphatase Activity (compared to DMSO) PRL-2 [2] [%] | % Phosphatase Activity (compared to DMSO) PRL-3 [3] [%]
CCC(=O)O[C@@H](O[P@](=O)(CCCCc1ccccc1)CC(=O)N1C[C@H](C2CCCCC2)C[C@H]1C(=O)[O-])C(C)C.[Na+] [Fosinopril Sodium] | 91 | 69 | 80 | – | – | –
COc1cc(Nc2ncc(F)c(Nc3ccc4c(n3)N(COP(=O)(O)O)C(=O)C(C)(C)O4)n2)cc(OC)c1OC [Fostamatinib (R788)] | 92 | 111 | 96 | – | – | –
C[C@]12CC[C@@H]3c4ccc(O)cc4C[C@@H](CCCCCCCCC[S+]([O-])CCCC(F)(F)C(F)(F)F)[C@H]3[C@@H]1CC[C@@H]2O (stereo partly drawn) [Fulvestrant] | 99 | 91 | 82 | – | – | –
Cl.O=C1OC(CN2CCOCC2)CN1/N=C/c1ccc([N+](=O)[O-])o1 (stereo not drawn) [Furaltadone HCl] | 74 | 80 | 65 | – | – | –
NS(=O)(=O)c1cc(C(=O)O)c(NCc2ccco2)cc1Cl [Furosemide] | 97 | 107 | 114 | – | – | –
CC(=O)O[C@H]1C[C@@]2(C)[C@@H](C[C@@H](O)[C@H]3[C@@]4(C)CC[C@@H](O)[C@@H](C)[C@@H]4CC[C@@]32C)/C1=C(\CCC=C(C)C)C(=O)O [Fusidate Sodium] | 87 | 79 | 66 | – | – | –
c1cn2cc(-c3ccc4cn[nH]c4c3)nc(Nc3ccc(N4CCOCC4)cc3)c2n1 [GS-9973] | 294 | 209 | 104 | – | – | –
COc1ncc(-c2ccc3nccc(-c4ccnnc4)c3c2)cc1NS(=O)(=O)c1ccc(F)cc1F [GSK2126458 (GSK458)] | 94 | 85 | 88 | – | – | –
Cl.NCC1(CC(=O)O)CCCCC1 [Gabapentin HCl] | 99 | 87 | 85 | – | – | –
NCC1(CC(=O)O)CCCCC1 [Gabapentin] | 105 | 92 | 87 | – | – | –
CCOC(=O)c1ccc(OC(=O)CCCCCN=C(N)N)cc1.CS(=O)(=O)O [Gabexate Mesylate] | 93 | 103 | 80 | – | – | –
C[C@]12CC[C@H](O)CC1=CC[C@@H]1[C@@H]2CC[C@]2(C)C(n3cnc4ccccc43)=CC[C@@H]12 [Galeterone] | 90 | 98 | 96 | – | – | –
CC[N+](CC)(CC)CCOc1cccc(OCC[N+](CC)(CC)CC)c1OCC[N+](CC)(CC)CC [Gallamine Triethiodide] | 104 | 105 | 84 | – | – | –
O=C(O)c1cc(O)c(O)c(O)c1 [Gallic acid] | 100 | 76 | 80 | – | – | –
Nc1nc(O)c2ncn(COC(CO)CO)c2n1 [Ganciclovir] | 90 | 98 | 99 | – | – | –
CC(C)c1cc(-c2n[nH]c(=O)n2-c2ccc3c(ccn3C)c2)c(O)cc1O [Ganetespib (STA-9090)] | 91 | 97 | 89 | – | – | –
COc1c(N2CCNC(C)C2)c(F)cc2c(=O)c(C(=O)O)cn(C3CC3)c12 (stereo not drawn) [Gatifloxacin] | 146 | 187 | 122 | – | – | –
COc1cc2ncnc(Nc3ccc(F)c(Cl)c3)c2cc1OCCCN1CCOCC1 [Gefitinib (ZD1839)] | 93 | 102 | 77 | – | – | –
Nc1ccn([C@@H]2O[C@H](CO)[C@@H](O)C2(F)F)c(=O)n1 [Gemcitabine HCl] | 93 | 78 | 94 | – | – | –
Nc1ccn([C@@H]2O[C@H](CO)[C@@H](O)C2(F)F)c(=O)n1 [Gemcitabine] | 109 | 100 | 77 | – | – | –

SMILES | % Phosphatase Activity (compared to DMSO) PRL-1 [1, 4] [%] | % Phosphatase Activity (compared to DMSO) PRL-2 [2, 4] [%] | % Phosphatase Activity (compared to DMSO) PRL-3 [3, 4] [%] | % Phosphatase Activity (compared to DMSO) PRL-1 [1] [%] | % Phosphatase Activity (compared to DMSO) PRL-2 [2] [%] | % Phosphatase Activity (compared to DMSO) PRL-3 [3] [%]
Cc1ccc(C)c(OCCCC(C)(C)C(=O)O)c1 [Gemfibrozil] | 93 | 95 | 76 | – | – | –
O=c1c(-c2ccc(O)cc2)coc2cc(O)cc(O)c12 [Genistein] | 95 | 100 | 64 | – | – | –
C#C[C@]1(O)C=C[C@H]2[C@@H]3CCC4=CC(=O)CC[C@@H]4[C@H]3CC[C@@]21CC [Gestodene] | 91 | 102 | 77 | – | – | –
Oc1cc(O)c(Cl)cn1 [Gimeracil] | 102 | 97 | 94 | – | – | –
Cl.O=C(OCC(O)CO)c1ccccc1Nc1ccnc2cc(Cl)ccc12 (stereo not drawn) [Glafenine HCl] | 77 | 71 | 80 | – | – | –
Cc1ccc(S(=O)(=O)NC(=O)NN2CC3CCCC3C2)cc1 (stereo not drawn) [Gliclazide] | 112 | 138 | 94 | – | – | –
CCC1=C(C)CN(C(=O)NCCc2ccc(S(=O)(=O)NC(=O)N[C@H]3CC[C@H](C)CC3)cc2)C1=O [Glimepiride] | 84 | 88 | 76 | – | – | –
Cc1cnc(C(=O)NCCc2ccc(S(=O)(=O)NC(=O)NC3CCCCC3)cc2)cn1 [Glipizide] | – | – | – | 97 | 98 | 75
COc1ccc2c(c1)C(=O)N(CCc1ccc(S(=O)(=O)NC(=O)NC3CCCCC3)cc1)C(=O)C2(C)C [Gliquidone] | 99 | 86 | 86 | – | – | –
O=C1O[C@H](CO)[C@@H](O)[C@H](O)[C@H]1O [Gluconolactone] | 103 | 98 | 82 | – | – | –
N[C@@H](CCC(=O)N[C@@H](CS)C(=O)NCC(=O)O)C(=O)O [Glutathione] | – | – | – | 93 | 87 | 112
COc1ccc(Cl)cc1C(=O)NCCc1ccc(S(=O)(=O)NC(=O)NC2CCCCC2)cc1 [Glyburide] | 104 | 100 | 77 | – | – | –
C[N+]1(C)CCC(OC(=O)C(O)(c2ccccc2)C2CCCC2)C1 (stereo not drawn) [Glycopyrrolate] | 108 | 101 | 82 | – | – | –
CN1C2CCCC1CC(NC(=O)c1nn(C)c3ccccc13)C2 (stereo not drawn) [Granisetron HCl] | 86 | 74 | 93 | – | – | –
COC1=CC(=O)C[C@@H](C)[C@]12Oc1c(Cl)c(OC)cc(OC)c1C2=O [Griseofulvin] | 112 | 125 | 90 | – | – | –
COc1ccccc1OCC(O)CO (stereo not drawn) [Guaifenesin] | 102 | 92 | 100 | – | – | –
N=C(N)N/N=C/c1c(Cl)cccc1Cl [Guanabenz Acetate] | 94 | 108 | 68 | – | – | –
N=C(N)NC(=O)Cc1c(Cl)cccc1Cl [Guanfacine Hydrochloride] | 103 | 84 | 96 | – | – | –
Cl.N=C(N)N [Guanidine HCl] | 103 | 108 | 86 | – | – | –
CCC(=O)O[C@]1(C(=O)CCl)[C@@H](C)C[C@H]2[C@@H]3C[C@H](F)C4=CC(=O)C=C[C@]4(C)[C@@]3(F)[C@@H](O)C[C@@]21C [Halobetasol Propionate] | 88 | 88 | 77 | – | – | –
